SMILES strings stand for the structures. A value given as a limit tells only on which side of the number the result lay.

The target of this test is T1, human FSH receptor (Homo sapiens, UniProt P23945).
T1 construct: expressed in transfected cells; host or cells: Chinese Hamster Ovary cells (K-1; ATCC), line rhFSHR-cLUC
T1 sequence (P23945 18-695): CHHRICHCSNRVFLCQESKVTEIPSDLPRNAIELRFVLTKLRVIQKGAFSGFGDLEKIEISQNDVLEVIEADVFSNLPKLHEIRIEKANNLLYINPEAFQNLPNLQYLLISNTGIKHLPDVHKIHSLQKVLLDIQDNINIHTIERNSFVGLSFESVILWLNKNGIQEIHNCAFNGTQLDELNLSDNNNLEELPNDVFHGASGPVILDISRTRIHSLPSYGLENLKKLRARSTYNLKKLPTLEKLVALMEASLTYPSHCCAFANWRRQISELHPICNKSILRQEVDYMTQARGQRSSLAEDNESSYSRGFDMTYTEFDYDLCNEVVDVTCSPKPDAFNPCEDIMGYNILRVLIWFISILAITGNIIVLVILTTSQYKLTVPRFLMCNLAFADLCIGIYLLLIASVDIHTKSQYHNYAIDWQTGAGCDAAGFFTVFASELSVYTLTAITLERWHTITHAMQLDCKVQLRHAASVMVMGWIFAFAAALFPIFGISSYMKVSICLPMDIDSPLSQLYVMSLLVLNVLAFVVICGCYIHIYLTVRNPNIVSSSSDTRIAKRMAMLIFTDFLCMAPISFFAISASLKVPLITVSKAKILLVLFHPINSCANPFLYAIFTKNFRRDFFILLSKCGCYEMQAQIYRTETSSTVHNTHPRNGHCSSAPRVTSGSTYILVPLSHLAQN
Nature of the test: hFSHR CHO cAMP assay (rhFSHR-cLUC cells, FSH-stimulated cAMP, radioimmunoassay). The test is classed as cell-based. To be noted: inhibition of cAMP produced by EC70 dose of FSH (4.85 nM); maximum concentration 50 μM. The text has this: Minimum Essential Medium-Alpha (MEM-alpha), fetal bovine serum (FBS), penicillin, streptomycin, geneticin, trypsin-EDTA, Hanks' Balanced Salt Solution (no Calcium chloride, Magnesium chloride, Magnesium sulfate, or phenol red; Ca-Mg free HBSS) were purchased from Gibco BRL (Gaithersburg, Md.). The cells used for the FSH bioassay (rhFSHR-cLUC) were Chinese Hamster Ovary cells (K-1; ATCC) stably transformed with human FSH receptor (pSVK-FSHr) and a cAMP luciferase reporter gene (responsive CGα-180LUC). Follicle Stimulating Hormone (Metrodin; Fertinex) was purchased from Serono, Ltd. (Norwell, Mass.).
The rhFSHR-cLUC cell cultures were maintained in MEM-Alpha supplemented with 10% heat-inactivated FBS (HIFBS), 100 U/ml penicillin, 100 μg/mL streptomycin, and included 0.1 g/L geneticin for stable cell selection.
Forty-eight hours after the cells were plated in sterile 96-well culture plates (Corning, Corning, N.Y.) the spent media was removed and 50 μl assay media (modified growth media with 2% HIFBS) containing 2 mM IBMX (3-isobutyl-1-methyl-xanthine) was added to the cells. Compounds (25 μl) in the appropriate concentration were added followed 5 minutes later by an EC70 dose of FSH (25 μl; 160 ng/ml; 4.85 nM). After 10 minutes @ 22.5° C. (room temperature) the reaction was terminated by addition of 25 μL 0.5 N hydrochloric acid to each well. The amount of cAMP produced was measured by radioimmunoassay in a FlashPlate (DuPont, Boston, Mass.). To each flash plate 60 μL flash plate buffer was added followed by 40 μL acidified cell sample or cAMP standard, followed with the addition of 100 μl ^125l-cAMP trace. The FlashPlates were sealed, incubated overnight @ room temperature, and counted in a Packard TopCount (Packard Instrument Co., Meriden, Conn.). The cAMP radioimmunoassay results were calculated using DPM conversion and log-logit transformation of % binding (Excel program).
Test compounds were solubilized in 30% dimethyl sulfoxide (DMSO) at a concentration of 10 mM before diluting to appropriate concentrations in assay medium. The final DMSO concentration in the treated cells and in the control cells was 0.75%.
For individual experiments, a set of samples were tested including a vehicle control (assay buffer), a reference compound (hFSH) at a range of concentrations designed to elicit a minimal to maximal response, and several concentrations of test compounds together with an EC70 concentration of standard (hFSH challenge). Each compound was performed in duplicates for the primary evaluation and quadruplicates for the dose-ranging experiments. The cAMP radioimmunoassay raw data (pmol) were calculated to provide average pmol cAMP produced/ml and the percent inhibition was calculated as shown below.
% Inh=[1−(Avg.pmoltest compound+standard)/(Avg.pmolstandard)]×100
EC50 values were calculated from an analysis of the concentration-inhibition data using a linear analysis of the data transformed to a log-logit format.
On the technique in general: cAMP levels reflect the balance of adenylyl cyclase and phosphodiesterase activity.
In the case of `C[C@@H](CN(CC(=O)NCCCCCN)S(=O)(=O)c1ccc(-c2ccccc2Cl)cc1)c1ccccc1` [Compound 379], the EC50 is ≥ 50 µM.

On to `C[C@H](CN(CC(=O)NCCCCCCN)S(=O)(=O)c1ccc(-c2cccc(F)c2)cc1)c1ccccc1` [Compound 401], for which the EC50 was determined as 1.36 µM.

In turn, `Cc1ccccc1-c1ccc(S(=O)(=O)N(CC(=O)NCC2CCC(CN)CC2)C[C@H](C)c2ccccc2)cc1` (stereo partly drawn) [Compound 372] had an EC50 of 0.19 µM.

Take `COc1ccc(CCN(CC(=O)NCCCCCCN)S(=O)(=O)c2ccc(-c3ccccc3Cl)cc2)cc1` [Compound 502]: the EC50 amounted to 0.3 µM.

As to `C[C@@H](CN(CC(=O)NCc1ccc(CN(C)C)cc1)S(=O)(=O)c1ccc(-c2ccccc2Cl)cc1)c1ccccc1` [Compound 471], a half-maximal effect (EC50) was put at 50 µM.

For the molecule `Cc1ccccc1-c1ccc(S(=O)(=O)N(CC(=O)NCc2ccc(CN(C)C)cc2)C[C@@H](C)c2ccccc2)cc1` [Compound 474], the EC50 is > 50 µM.

`COc1ccccc1CCN(CC(=O)NCc1ccc(CN)cc1)S(=O)(=O)c1ccc(-c2cccs2)cc1` [Compound 245]: the EC50 turned out to be 5.63 µM.

Turning to `C[C@@H](CN(CC(=O)N1CCC(C2CCNCC2)CC1)S(=O)(=O)c1ccc(-c2ccccc2Cl)cc1)c1ccccc1` [Compound 367], the half-maximal effective concentration (EC50) was 1.02 µM.

Turning to `CCN(CC)Cc1ccc(CNC(=O)CN(CC(C)c2ccccc2)S(=O)(=O)c2ccc(-c3ccccc3Cl)cc2)cc1` (stereo not drawn) [Compound 472], the concentration giving a half-maximal response (EC50) is > 50 µM.

`C[C@@H](CN(CC(=O)NCC1CCCC(CN)C1)S(=O)(=O)c1ccc(-c2ccccc2Cl)cc1)c1ccccc1` (stereo partly drawn) [Compound 385] displayed a half-maximal effective concentration (EC50) of 0.33 µM.

Consider `C[C@H](CN(CC(=O)NCC1CCCC(CN)C1)S(=O)(=O)c1ccc(-c2ccccc2Cl)cc1)c1ccccc1` (stereo partly drawn) [Compound 388], for which the response was half-maximal at 0.9 µM (EC50).

`COc1ccccc1CN(CC(=O)NCC1CCCC(CN)C1)S(=O)(=O)c1ccc(-c2ccc(Cl)cc2Cl)cc1` (stereo not drawn) [Compound 343] had a concentration giving a half-maximal response (EC50) of 0.53 µM.

Molecule `COc1ccccc1CCN(CC(=O)NCC1CCCC(CN)C1)S(=O)(=O)c1ccc(-c2ccccc2C)cc1` (stereo not drawn) [Compound 336] showed a 50% effective concentration (EC50) of 0.98 µM.

The molecule `C[C@@H](CN(CC(=O)NCCCCCCN)S(=O)(=O)c1ccc(-c2ccccc2Cl)cc1)c1ccccc1` [Compound 397] showed an EC50 of 0.05 µM.

In turn, `C[C@@H](CN(CC(=O)NCc1ccc(CN)cc1)S(=O)(=O)c1ccc(C(C)(C)C)cc1)c1ccccc1` [Compound 555] gave a concentration for a half-maximal effect (EC50) of 1.93 µM.

As to `CC(=O)NCc1ccc(CNC(=O)CN(CC(C)c2ccccc2)S(=O)(=O)c2ccc(-c3ccccc3C)cc2)cc1` (stereo not drawn) [Compound 476], the EC50 is ≥ 50 µM.

Molecule `C[C@@H](CN(CC(=O)NCC1CCCC(CN)C1)S(=O)(=O)c1ccc(-c2cccc(F)c2)cc1)c1ccccc1` (stereo partly drawn) [Compound 386] registered an EC50 of 1.17 µM.

`C[C@@H](CN(CC(=O)NCc1ccc(CN)cc1)C(=O)Nc1ccc(-c2ccccc2)cc1)c1ccccc1` [Compound 590] had a 50% effective concentration (EC50) of 2.6 µM.

`COc1ccccc1CCN(CC(=O)NCCCCCCN)S(=O)(=O)c1ccc(-c2ccccc2Cl)cc1` [Compound 353] had an EC50 of 0.14 µM.

Turning to `COc1ccccc1CCN(CC(=O)NCc1cccc(CN)c1)S(=O)(=O)c1ccc(-c2ccccc2C)cc1` [Compound 344], the response was half-maximal at 0.7 µM (EC50).

The molecule `COc1ccccc1CN(CC(=O)NCC1CCCC(CN)C1)S(=O)(=O)c1ccc(-c2ccccc2C)cc1` (stereo not drawn) [Compound 340] came in with a 50% effective concentration (EC50) of 0.65 µM.

With `COc1ccccc1CN(CC(=O)N1CCNCC1)S(=O)(=O)c1ccc(-c2ccccc2C)cc1` [Compound 174], the half-maximal effective concentration (EC50) was ≥ 50 µM.

Molecule `Cc1ccccc1-c1ccc(S(=O)(=O)N(CC(=O)NCc2cccc(CN)c2)C[C@H](C)c2ccccc2)cc1` [Compound 390] had an EC50 of 0.23 µM.

`Cc1ccccc1-c1ccc(S(=O)(=O)N(CC(=O)NCc2ccc(CN)cc2)CC(C)c2ccccc2)cc1` (stereo not drawn) [Compound 311] yielded a 50% effective concentration (EC50) of 0.05 µM.

Consider `CC(CN(CC(=O)NC1CCC(CC2CCC(N)CC2)CC1)S(=O)(=O)c1ccc(-c2ccccc2Cl)cc1)c1ccccc1` (stereo not drawn) [Compound 497], for which the response was half-maximal at 4.04 µM (EC50).

Molecule `C[C@@H](CN(CC(=O)NCCCCCN)S(=O)(=O)c1ccc(-c2cccc(F)c2)cc1)c1ccccc1` [Compound 380] registered an EC50 of 1.2 µM.

Take `COc1ccccc1CCN(CC(=O)NCCCCCCN)S(=O)(=O)c1ccc(-c2ccccc2C)cc1` [Compound 352]: a half-maximal response (EC50) required 0.11 µM.

`CC(=O)NCc1ccc(CNC(=O)CN(C[C@H](C)c2ccccc2)S(=O)(=O)c2ccc(-c3ccccc3Cl)cc2)cc1` [Compound 473]: the EC50 is > 50 µM.

The molecule `Cc1ccccc1-c1ccc(S(=O)(=O)N(CC(=O)NCc2ccc(CN)cc2)C2CC2c2ccccc2)cc1` (stereo not drawn) [Compound 320] came in with a 50% effective concentration (EC50) of 2.57 µM.

Regarding `CCN(CC)Cc1ccc(CNC(=O)CN(C[C@@H](C)c2ccccc2)S(=O)(=O)c2ccc(-c3ccccc3C)cc2)cc1` [Compound 475], the EC50 stood at 9.46 µM.

Molecule `COc1ccccc1CCN(CC(=O)NCC1CCCC(CN)C1)S(=O)(=O)c1ccc(-c2ccccc2Cl)cc1` (stereo not drawn) [Compound 337] displayed a concentration for a half-maximal effect (EC50) of 0.31 µM.

For `COc1ccccc1CCN(CC(=O)N1CCNCC1)S(=O)(=O)c1ccc(-c2ccccc2C)cc1` [Compound 151], the EC50 was found to be 9.79 µM.

As to `COc1ccccc1CCN(CC(=O)NCCCCCCN)S(=O)(=O)c1ccc(-c2ccc(Cl)cc2Cl)cc1` [Compound 355], the EC50 came out at 0.4 µM.

`COc1ccccc1CN(CC(=O)NCC1CCCC(CN)C1)S(=O)(=O)c1ccc(-c2ccccc2Cl)cc1` (stereo not drawn) [Compound 341]: the EC50 was found to be 0.57 µM.

Molecule `COc1ccccc1CCN(CC(=O)NCc1ccc(CN)cc1)S(=O)(=O)c1ccccc1-c1ccccc1C` [Compound 218] returned an EC50 of 1.2 µM.

The molecule `C[C@H](CN(CC(=O)NCc1ccc(CN)cc1)S(=O)(=O)c1ccc(-c2cccc(F)c2)cc1)c1ccccc1` [Compound 213] displayed an EC50 of 0.07 µM.

Molecule `COc1ccccc1CCN(CC(=O)NCC1CCCC(CN)C1)S(=O)(=O)c1ccc(-c2ccc(Cl)cc2Cl)cc1` (stereo not drawn) [Compound 339] gave an EC50 of 1.1 µM.

Molecule `C[C@H](CN(CC(=O)NCc1ccc(CN)cc1)C(=O)c1ccc(-c2ccccc2Cl)cc1)c1ccccc1` [Compound 477] showed a concentration giving a half-maximal response (EC50) of 7.7 µM.

Take `COc1ccccc1CCN(CC(=O)NCC1CCCC(CN)C1)S(=O)(=O)c1ccc(-c2ccccc2OC)cc1` (stereo not drawn) [Compound 338]: the concentration giving a half-maximal response (EC50) came out at 0.44 µM.

By EC50 is commonly meant the concentration giving half of the maximal effect.

For the origin of these results see patent publication US6583179B2, “Substituted aminoalkylamide derivatives as antagonists of follicle stimulating hormone” (Ortho-McNeil Pharmaceutical, Inc., priority 1999, dated 2003).
